The record followed here is PubChem BioAssay AID1259407 (Chemical Carcinogenesis Research Information System (CCRIS), 2018).

The source made the active and inactive calls. The rule behind the calls is not given here.

This data set concerns CCRIS mutagenicity, Ames/micronucleus/aberration tests. The data set can be described thus: CCRIS mutagenicity studies.
[1] abbreviates: Test System: AMES SALMONELLA TYPHIMURIUM, Strain/Indicator: TA98, Metabolic Activation: NONE, Method: STANDARD PLATE.
Setting [2] is: Test System: AMES SALMONELLA TYPHIMURIUM, Strain/Indicator: TA100, Metabolic Activation: NONE, Method: STANDARD PLATE.
Setting [3] is: Test System: AMES SALMONELLA TYPHIMURIUM, Strain/Indicator: TA1535, Metabolic Activation: NONE, Method: STANDARD PLATE.
[4] abbreviates: Test System: AMES SALMONELLA TYPHIMURIUM, Strain/Indicator: TA1537, Metabolic Activation: NONE, Method: STANDARD PLATE.

Consider `C=CC(C)(C)c1cc2cc3c(cc2oc1=O)OC(C(C)(C)O)C3` (stereo unspecified), for which the mutagenic call runs as follows: (Test System: AMES SALMONELLA TYPHIMURIUM, Strain/Indicator: TA92, Metabolic Activation: NONE, Method: SPOT TEST) “inactive; negative”; (Test System: AMES SALMONELLA TYPHIMURIUM, Strain/Indicator: TA92, Metabolic Activation: RAT, LIVER, S-9, AROCLOR 1254, Method: SPOT TEST) “inactive; negative”; (Test System: AMES SALMONELLA TYPHIMURIUM, Strain/Indicator: TA94, Metabolic Activation: NONE, Method: SPOT TEST) “inactive; negative”; (Test System: AMES SALMONELLA TYPHIMURIUM, Strain/Indicator: TA94, Metabolic Activation: RAT, LIVER, S-9, AROCLOR 1254, Method: SPOT TEST) “inactive; negative”; (Test System: AMES SALMONELLA TYPHIMURIUM, Strain/Indicator: TA97, Metabolic Activation: NONE, Method: SPOT TEST) “active; positive”; (Test System: AMES SALMONELLA TYPHIMURIUM, Strain/Indicator: TA97, Metabolic Activation: RAT, LIVER, S-9, AROCLOR 1254, Method: SPOT TEST) “inactive; negative”. Also, the mutagenic call is, setting by setting: (Test System: AMES SALMONELLA TYPHIMURIUM, Strain/Indicator: TA98, Metabolic Activation: NONE, Method: SPOT TEST) “active; positive”; (Test System: AMES SALMONELLA TYPHIMURIUM, Strain/Indicator: TA98, Metabolic Activation: RAT, LIVER, S-9, AROCLOR 1254, Method: SPOT TEST) “inactive; negative”; (Test System: AMES SALMONELLA TYPHIMURIUM, Strain/Indicator: TA100, Metabolic Activation: NONE, Method: SPOT TEST) “active; positive”; (Test System: AMES SALMONELLA TYPHIMURIUM, Strain/Indicator: TA100, Metabolic Activation: RAT, LIVER, S-9, AROCLOR 1254, Method: SPOT TEST) “inactive; negative”; (Test System: AMES SALMONELLA TYPHIMURIUM, Strain/Indicator: TA102, Metabolic Activation: NONE, Method: SPOT TEST) “inactive; negative”; (Test System: AMES SALMONELLA TYPHIMURIUM, Strain/Indicator: TA102, Metabolic Activation: RAT, LIVER, S-9, AROCLOR 1254, Method: SPOT TEST) “inactive; negative”.

As for `Cc1c2c(c(C)c3c1ccc1ccccc13)C=C[C@@H](O)[C@@H]2O`, where the note is “Test System: CHINESE HAMSTER V-79, Strain/Indicator: V-79/OUABAIN, Metabolic Activation: CELL-MEDIATED, Method: STANDARD PLATE”, the mutagenic call is “active; positive”.

Consider `FC(F)(F)c1ccc(Cl)c(Cl)c1`, for which the mutagenic call (Test System: E. coli, Strain/Indicator: WP2uvrA/pKM101, Metabolic Activation: None, Method: Preincubation) was “inactive; negative”; the mutagenic call (Test System: E. coli, Strain/Indicator: WP2uvrA/pKM101, Metabolic Activation: Rat, Liver, S9, Sodium phenobarbital and 5,6-benzoflavone, Method: Preincubation) is “inactive; negative”.

Turning to `CN(N=O)C(=O)c1c(N(C)C(=O)OC(C)(C)C)ncn1C`, the mutagenic call is “inactive; negative” under setting [1]; “inactive; negative” (Test System: AMES SALMONELLA TYPHIMURIUM, Strain/Indicator: TA98, Metabolic Activation: S-9, Method: STANDARD PLATE); “active; positive” under setting [2]; “active; positive” (Test System: AMES SALMONELLA TYPHIMURIUM, Strain/Indicator: TA100, Metabolic Activation: S-9, Method: STANDARD PLATE); “inactive; negative” (Test System: AMES SALMONELLA TYPHIMURIUM, Strain/Indicator: TA102, Metabolic Activation: NONE, Method: STANDARD PLATE); “active; positive” (Test System: AMES SALMONELLA TYPHIMURIUM, Strain/Indicator: TA102, Metabolic Activation: S-9, Method: STANDARD PLATE). Besides, the mutagenic call runs as follows: under setting [3], “active; positive”; (Test System: AMES SALMONELLA TYPHIMURIUM, Strain/Indicator: TA1535, Metabolic Activation: S-9, Method: STANDARD PLATE) “active; positive”; under setting [4], “inactive; negative”; (Test System: AMES SALMONELLA TYPHIMURIUM, Strain/Indicator: TA1537, Metabolic Activation: S-9, Method: STANDARD PLATE) “inactive; negative”.

Take `COc1ccc(-c2nc(-c3ccc(C)cc3C)[nH]c2-c2ccc(OC)cc2)cc1`: the mutagenic call was “active; positive” under setting [1]; “inactive; negative” (Test System: AMES SALMONELLA TYPHIMURIUM, Strain/Indicator: TA98, Metabolic Activation: RAT LIVER S-9, 3-METHYLCHOLANTHRENE, SODIUM PHENOBARBITAL, Method: STANDARD PLATE); “active; positive” under setting [2]; “inactive; negative” (Test System: AMES SALMONELLA TYPHIMURIUM, Strain/Indicator: TA100, Metabolic Activation: RAT LIVER S-9, 3-METHYLCHOLANTHRENE, SODIUM PHENOBARBITAL, Method: STANDARD PLATE).

Take `CC(=O)N[C@@H](CC(=O)O)C(=O)O`: the mutagenic call (End Point: In vivo micronucleus, Test System: Bone marrow erythrocytes, Species: Mouse, Strain/Sex: Crl:CD1 (ICR)/Male and female, Route: Oral) is “inactive; negative”; the mutagenic call (Test System: Ames Salmonella typhimurium, Strain/Indicator: TA98, Metabolic Activation: None, Method: Standard plate) was “inactive; negative”; the mutagenic call (Test System: Ames Salmonella typhimurium, Strain/Indicator: TA98, Metabolic Activation: Rat, Liver, S-9, Aroclor 1254 (10%), Method: Standard plate) is “inactive; negative”; the mutagenic call (Test System: Ames Salmonella typhimurium, Strain/Indicator: TA100, Metabolic Activation: None, Method: Standard plate) was “inactive; negative”; the mutagenic call (Test System: Ames Salmonella typhimurium, Strain/Indicator: TA100, Metabolic Activation: Rat, Liver, S-9, Aroclor 1254 (10%), Method: Standard plate) is “inactive; negative”; the mutagenic call (Test System: Ames Salmonella typhimurium, Strain/Indicator: TA1535, Metabolic Activation: None, Method: Standard plate) was “inactive; negative”. In addition, the mutagenic call runs as follows: (Test System: Ames Salmonella typhimurium, Strain/Indicator: TA1535, Metabolic Activation: Rat, Liver, S-9, Aroclor 1254 (10%), Method: Standard plate) “inactive; negative”; (Test System: Ames Salmonella typhimurium, Strain/Indicator: TA1537, Metabolic Activation: None, Method: Standard plate) “inactive; negative”; (Test System: Ames Salmonella typhimurium, Strain/Indicator: TA1537, Metabolic Activation: Rat, Liver, S-9, Aroclor 1254 (10%), Method: Standard plate) “inactive; negative”; (Test System: E. coli, Strain/Indicator: WP2 uvrA, Metabolic Activation: None, Method: Standard plate) “inactive; negative”; (Test System: E. coli, Strain/Indicator: WP2 uvrA, Metabolic Activation: Rat, Liver, S-9, Aroclor 1254 (10%), Method: Standard plate) “inactive; negative”.

With `O=[N+]([O-])c1c(-c2ccc(Cl)cc2)nc2sccn12`, the mutagenic call was “active; positive” under setting [1]; “inactive; negative” under setting [2]; “inactive; negative” under setting [3]; “active; positive” under setting [4]; “active; positive” (Test System: AMES SALMONELLA TYPHIMURIUM, Strain/Indicator: TA1538, Metabolic Activation: NONE, Method: STANDARD PLATE).

Consider `CCc1c2ccccc2cc2c1c1c(c3ccccc32)N1`, for which the mutagenic call (Test System: AMES SALMONELLA TYPHIMURIUM, Strain/Indicator: TA98, Metabolic Activation: NONE, Method: PREINCUBATION) is “active; positive”.
